The values below come from patent US9062033B2, “Chemical compounds” (Rottapharm Biotech S.r.l., priority 2011, dated 2015).

Each structure is given as a SMILES string.

The target in one test is T1, human OX1 receptors (Homo sapiens, UniProt O43613).
T1 construct: expressed in transfected cells; host or cells: CHO cells
T1 sequence (O43613 1-425): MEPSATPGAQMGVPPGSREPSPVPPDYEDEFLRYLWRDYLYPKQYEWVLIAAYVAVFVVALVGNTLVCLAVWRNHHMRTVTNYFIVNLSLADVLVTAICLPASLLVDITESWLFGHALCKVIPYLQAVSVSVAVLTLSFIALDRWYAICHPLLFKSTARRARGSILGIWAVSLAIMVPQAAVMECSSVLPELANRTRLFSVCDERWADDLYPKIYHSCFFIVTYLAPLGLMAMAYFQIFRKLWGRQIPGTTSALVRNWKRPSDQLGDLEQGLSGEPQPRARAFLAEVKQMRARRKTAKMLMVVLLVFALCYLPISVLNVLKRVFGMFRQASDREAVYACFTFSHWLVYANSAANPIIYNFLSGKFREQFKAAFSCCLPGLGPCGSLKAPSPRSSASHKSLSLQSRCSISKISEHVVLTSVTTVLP
The test can be described thus: Antagonistic activity against human OX1 receptor, [Ca2+]i fluorimetry (Fluo-4NW) in transfected CHO cells activated with orexin-A. It is filed as cell-based. Conditions: for Kb: CHO cells transfected with human recombinant OX1, orexin-A 3 nM, pKb = co-logarithm of apparent dissociation constant, modified Cheng Prusoff. Here is the method: (§1) In a typical experiment, the antagonistic activity against human OX1 and OX2 receptors is determined by using CHO e HEK-293 cells transfected with human recombinant OX1 and OX2 receptors respectively, seeded at density of 2 and 3×10^4 cells/well respectively in a 96 fluorimetry well plate. Thus the plate was loaded with the calcium dye (Fluo-4NW/probenecid in HBSS, Hepes 20 mM, pH 7.4; Invitrogen) at 37° C. for 60 min. Afterward the temperature was equilibrated at 22° C. for 15 min and the [Ca2+]i measured directly on the plate by using a fluorescent plate reader (CellLux Perkin Elmer).
(§2) Invention compounds were dissolved in DMSO, diluted in HBSS (DMSO, 0.3% final) and added to the wells. After 5 min CHO cells were activated with orexin-A, 3 nM while HEK-293 cells were activated with orexin-B, 10 nM.
(§3) The compounds, dissolved in DMSO and diluted in the medium (DMSO, 0.3% final), have been analysed in the 1 nM-1 μM concentration range (every concentration in duplicate). The antagonistic activity has been expressed as pKb (co-logarithm of the apparent dissociation constant calculated by using the modified Cheng Prusoff equation).
(§4) The results are expressed as percent of control specific […] response ((measured specific response/control specific agonist response)×100) obtained in the presence of the test compounds.
(§5) The IC50 values (concentration causing a half-maximal inhibition of the control specific agonist response) were determinated by non-linear regression analysis of the concentration curves generated with mean replicate values using hill equation curve fitting. The IC50 values are obtained by the arithmetical mean of at least two experiments. Compounds of the following example tested according to this example gave pKbs as follows: […]

The target in another test is T2, human OX2 receptors (Homo sapiens, UniProt O43614).
T2 construct: expressed in transfected cells; host or cells: HEK-293 cells
T2 sequence (O43614 1-444): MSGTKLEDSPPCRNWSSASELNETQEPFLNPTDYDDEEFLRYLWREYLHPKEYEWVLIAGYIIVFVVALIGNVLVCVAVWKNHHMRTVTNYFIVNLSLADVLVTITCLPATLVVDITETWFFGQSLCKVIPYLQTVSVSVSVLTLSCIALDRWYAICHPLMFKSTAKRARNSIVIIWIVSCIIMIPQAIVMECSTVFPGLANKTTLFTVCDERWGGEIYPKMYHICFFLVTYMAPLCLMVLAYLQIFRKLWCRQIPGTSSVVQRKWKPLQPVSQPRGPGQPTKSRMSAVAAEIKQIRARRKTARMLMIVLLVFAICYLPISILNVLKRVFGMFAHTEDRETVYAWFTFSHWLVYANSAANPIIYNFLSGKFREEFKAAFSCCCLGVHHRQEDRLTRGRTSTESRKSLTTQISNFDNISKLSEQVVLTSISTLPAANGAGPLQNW
The test can be described thus: Antagonistic activity against human OX2 receptor, [Ca2+]i fluorimetry (Fluo-4NW) in transfected HEK-293 cells activated with orexin-B. It is filed as cell-based. Conditions: for Kb: HEK-293 cells transfected with human recombinant OX2, orexin-B 10 nM, pKb = co-logarithm of apparent dissociation constant, modified Cheng Prusoff. As to the method:
as §1, §2, §3, §4, §5

Setting [1] is: comparison table with compound of WO2011006960.

Usually Kb stands for the equilibrium dissociation constant of an antagonist, usually derived from a functional assay. On to `Cc1ccc(-c2ncccn2)c(C(=O)N2CC3(CC3)C[C@H]2CNc2cc(C(F)(F)F)cc(C)n2)c1` [Compound 1m, (S)-(5-methyl-2-(pyrimidin-2-yl)phenyl)(6-(((6-methyl-4-(trifluoromethyl)pyridin-2-yl)amino)methyl)-5-azaspiro[2.4]heptan-5-yl)methanone], for which the Kb on human OX1 receptors was 15.8 nM; at human OX2 receptors, 12.6 nM.
Turning to `Cc1ccc(OCc2ccc(F)cc2)c(C(=O)N2CC3(CC3)C[C@H]2CNc2ccc(C(F)(F)F)cn2)n1` [Compound 3m, (S)-(3((4-fluorobenzyl)oxy)-6-methylpyridin-2-yl)(6-(((5-(trifluoromethyl)pyridin-2-yl)amino)methyl)-5-azaspiro[2.4]heptan-5-yl)methanone], the Kb was 39.8 nM on human OX1 receptors and 15.8 nM at human OX2 receptors.
Consider `Cc1ccc(-c2ccccc2)c(C(=O)N2CC3(CC3)C[C@H]2CNc2ccc(C(F)(F)F)cn2)n1` [Compound 3b, (S)-(6-methyl-3-phenylpyridin-2-yl)(6-(((5-(trifluoromethyl)pyridin-2-yl)amino)methyl)-5-azaspiro[2.4]heptan-5-yl)methanone], for which the Kb on human OX1 receptors was 2.51 nM; at human OX2 receptors, 10 nM.
The matching figures for `Cc1ccc(-c2ncccn2)c(C(=O)N2CC3(CC3)C[C@H]2CNc2nccc(C(F)(F)F)n2)c1` [Compound 1p, (S)-(5-methyl-2-(pyrimidin-2-yl)phenyl)(6-(((4-(trifluoromethyl)pyrimidin-2-yl)amino)methyl)-5-azaspiro[2.4]heptan-5-yl)methanone]: 79.4 nM and 20 nM.
The matching figures for `O=C(c1cc(F)ccc1-c1ncccn1)N1CC2(CC2)C[C@H]1CNc1cc(C(F)(F)F)ccn1` [Compound 1k, (S)-(5-fluoro-2-(pyrimidin-2-yl)phenyl)(6-(((4-(trifluoromethyl)pyridin-2-yl)amino)methyl)-5-azaspiro[2.4]heptan-5-yl)methanone]: 50.1 nM and 7.94 nM.
The matching figures for `O=C(c1nc(C2CC2)ccc1-c1ccccc1)N1CC2(CC2)C[C@H]1CNc1ccc(C(F)(F)F)cn1` [Compound 3r, (S)-(6-cyclopropyl-3-phenylpyridin-2-yl)(6-(((5-(trifluoromethyl)pyridin-2-yl)amino)methyl)-5-azaspiro[2.4]heptan-5-yl)methanone]: 2.51 nM and 12.6 nM.
For the compound `Cc1cccc(C(=O)N2CC3(CC3)C[C@H]2CNc2ccc(C(F)(F)F)cn2)c1-c1ncccn1` [Compound 1c, (S)-(3-methyl-2-(pyrimidin-2-yl)phenyl)(6-(((5-(trifluoromethyl)pyridin-2-yl)amino)methyl)-5-azaspiro[2.4]heptan-5-yl)methanone], the Kb at human OX1 receptors is 12.6 nM; at human OX2 receptors, 200 nM.
In the case of `Cc1ccc(-c2ncccn2)c(C(=O)N2CC3(CC3)C[C@H]2CNc2nc3ccccc3o2)n1` [Compound E9, (S)-(6-((benzo[d]oxazol-2-ylamino)methyl)-5-azaspiro[2.4]heptan-5-yl)(6-methyl-3-(pyrimidin-2-yl)pyridin-2-yl)methanone], the Kb at human OX1 receptors was 0.631 nM; at human OX2 receptors, 25.1 nM.
For `Cc1ccc(-c2ncccn2)c(C(=O)N2CC3(CC3)C[C@H]2CNc2cc(C(F)(F)F)ccn2)c1` [Compound 1n, (S)-(5-methyl-2-(pyrimidin-2-yl)phenyl)(6-(((4-(trifluoromethyl)pyridin-2-yl)amino)methyl)-5-azaspiro[2.4]heptan-5-yl)methanone], the Kb on human OX1 receptors is 50.1 nM; on human OX2 receptors, 15.8 nM. The “pKb OX1” value at human OX1 receptors (setting [1]) was determined as 7.3. The “pKb OX2” value on human OX2 receptors (setting [1]) is reported as 7.8.
As to `N#Cc1ccc(-c2ncccn2)c(C(=O)N2CC3(CC3)C[C@H]2CNc2ccc(C(F)(F)F)cn2)c1` [Compound E12, (S)-4-(pyrimidin-2-yl)-3-(6-(((5-(trifluoromethyl)-pyridin-2-yl)amino)methyl)-5-azaspiro[2.4]heptane-5-carbonyl)benzonitrile], the antagonist dissociation constant (Kb) at human OX1 receptors is 10 nM; on human OX2 receptors, 7.94 nM.
The matching figures for `Cc1ccc(-c2ccc(F)c(F)c2)c(C(=O)N2CC3(CC3)C[C@H]2CNc2ccc(C(F)(F)F)cn2)n1` [Compound E11, (S)-(3-(3,4-difluorophenyl)-6-methylpyridin-2-yl)(6-(((5-(trifluoromethyl)pyridin-2-yl)amino)methyl)-5-azaspiro[2.4]heptan-5-yl)methanone]: 12.6 nM and 20 nM.
The matching figures for `Cc1ccc(-c2ncccn2)c(C(=O)N2CC3(CC3)C[C@H]2CNc2ccc(C(F)(F)F)cn2)n1` [Compound 3a, (S)-(6-methyl-3-(pyrimidin-2-yl)pyridin-2-yl)(6-(((5-(trifluoromethyl)pyridin-2-yl)amino)methyl)-5-azaspiro[2.4]heptan-5-yl)methanone]: 3.98 nM and 31.6 nM.
Turning to `O=C(c1ncccc1-c1ccccn1)N1CC2(CC2)C[C@H]1CNc1ccc(C(F)(F)F)cn1` [Compound E7, (S)-[2,3′-bipyridin]-2′-yl(6-(((5-(trifluoromethyl)pyridin-2-yl)amino)methyl)-5-azaspiro[2.4]heptan-5-yl)methanone], the Kb is 3.98 nM on human OX1 receptors and 126 nM at human OX2 receptors.
For `O=C(c1cc(Cl)ccc1-c1ncccn1)N1CC2(CC2)C[C@H]1CNc1cc(C(F)(F)F)ccn1` [Compound 1f, (S)-(5-chloro-2-(pyrimidin-2-yl)phenyl)(6-(((4-(trifluoromethyl)pyridin-2-yl)amino)methyl)-5-azaspiro[2.4]heptan-5-yl)methanone], in that order: 7.94 nM and 12.6 nM.
`Cc1ccc(OCc2ccccc2)c(C(=O)N2CC3(CC3)C[C@H]2CNc2ccc(C(F)(F)F)cn2)n1` [Compound 3k, (S)-(3-(benzyloxy)-6-methylpyridin-2-yl)(6-(((5-(trifluoromethyl)pyridin-2-yl)amino)methyl)-5-azaspiro[2.4]heptan-5-yl)methanone]: the Kb at human OX1 receptors and at human OX2 receptors was 2.51 nM throughout.
Consider `Cc1nc(C(=O)N2CC3(CC3)C[C@H]2CNc2nc3ccccc3o2)c(-c2ccccc2)s1` [Compound 2b, (S)-(6-((benzo[d]oxazol-2-ylamino)methyl)-5-azaspiro[2.4]heptan-5-yl)(2-methyl-5-phenylthiazol-4-yl)methanone], for which the Kb on human OX1 receptors is 0.794 nM; on human OX2 receptors it was 2.51 nM.
With `O=C(c1cc(Cl)ccc1-c1ncccn1)N1CC2(CC2)C[C@H]1CNc1cc(C(F)(F)F)c(Cl)cn1` [Compound 1t, (S)-(5-chloro-2-(pyrimidin-2-yl)phenyl)(6-(((5-chloro-4-(trifluoromethyl)pyridin-2-yl)amino)methyl)-5-azaspiro[2.4]heptan-5-yl)methanone], the values for the Kb at human OX1 receptors and at human OX2 receptors were 7.94 nM and 20 nM, respectively.
Turning to `Cc1ccc(-c2ccc(F)cc2)c(C(=O)N2CC3(CC3)C[C@H]2CNc2ccc(C(F)(F)F)cn2)n1` [Compound 3f, (S)-(3-(4-fluorophenyl)-6-methylpyridin-2-yl)(6-(((5-(trifluoromethyl)pyridin-2-yl)amino)methyl)-5-azaspiro[2.4]heptan-5-yl)methanone], the Kb at human OX1 receptors and at human OX2 receptors was 7.94 nM throughout.
In the case of `O=C(c1cc(Br)ccc1-c1ncccn1)N1CC2(CC2)C[C@H]1CNc1ccc(C(F)(F)F)cn1` [Compound 1e, (S)-(5-bromo-2-(pyrimidin-2-yl)phenyl)(6-(((5-(trifluoromethyl)pyridin-2-yl)amino)methyl)-5-azaspiro[2.4]heptan-5-yl)methanone], the antagonist dissociation constant (Kb) on human OX1 receptors is 3.16 nM; at human OX2 receptors, 20 nM.
